Holding throughout (type): cell-based
Experiment [1] deals with secretion of TNF-α, IL-1β and INFγ induced by TNF-α in splenocytes. The experiment in a line: ELISA of cytokine secretion in TNF-α-stimulated splenocytes. The conditions noted are these: mouse splenocytes, peptide 5 μM and 50 μM, TNF-α 20 nM, 24 hours. The method, then:
In order to confirm the effect of the peptides of the present invention synthesized in Synthesis Example 1 on the inflammatory response induced by TNF-α, the secretion amounts of TNF-α, IL-1β, and INFγ, which are inflammatory cytokines, were measured by ELISA.
(§1) Specifically, 6-7 week old mice (C57BL/6, Young Bio Co., Ltd.) were sacrificed to obtain spleens, which were crushed using a cell strainer, and then centrifuged with serum-free RPMI-1640 medium. The supernatant was discarded and red blood cells (RBCs) were removed twice using RBC lysis buffer. Then, after washing the resultant with serum-free RPMI-1640 medium, an appropriate amount of serum-free RPMI-1640 medium was added thereto. The number of mouse splenocytes was measured, and the cells were inoculated into a 24-well plate at a density of 1×10^7 cells/well, and cultured overnight. Next day, the medium was replaced with serum-free medium and the cells were cultured for 4 hours, and then treated with the peptide of the present invention (5 μM and 50 μM) and TNF-α (20 nM), which is an inflammation-inducing substance, as a stimulant, and cultured for 24 additional hours.
Next, the cell culture was recovered after cultivation, and the amounts of secretion of TNF-α, IL-1β, and INFγ, which are inflammatory cytokines, were measured using an ELISA kit (Quantikine ELISA Kit, R&D System, USA) specific to TNF-α, IL-1β, and INFγ, and the absorbance was measured using Spectramax M2 (Molecular Devices).
(In general: In an ELISA, binding on a coated surface is turned into a signal by an enzyme label.)

The test system of experiment [2] is secretion of TNF-α, IFN-γ and IL-17 induced by LPS in splenocytes. The experiment in a line: ELISA of cytokine secretion in LPS-stimulated splenocytes. As to conditions: mouse splenocytes, peptide 5 μM and 50 μM, LPS 2 μg/mL, 24 hours. The method, then:
In order to confirm the effect of the peptides of the present invention synthesized in Synthesis Example 1 on the inflammatory response induced by LPS, the secretion amounts of inflammatory cytokines TNF-α, IL-17, and INFγ were measured by ELISA.
as §1, with “LPS (2 μg/mL),” for “TNF-α (20 nM),”
Next, the cell culture was recovered after cultivation, and the amounts of secretion of IL-17, IFN-γ, and TNF-α, which are secretion markers during Th17 differentiation, were measured using an ELISA kit (Quantikine ELISA Kit, R&D System, USA) specific to IL-17, IFN-γ, and TNF-α, and the absorbance was measured using Spectramax M2 (Molecular Devices).

Experiment [3] concerns COX2 and INFγ mRNA expression induced by LPS in splenocytes. The experiment in a line: RT-PCR of inflammatory gene mRNA in LPS-stimulated splenocytes. As to conditions: mouse splenocytes; peptide 5 μM and 50 μM; LPS 2 μg/mL; 3 hours; FIG. 1. The method, then:
In order to confirm the effect of the peptides of the present invention synthesized in Synthesis Example 1 on the inflammatory response induced by LPS, the expression levels of mRNA of inflammatory cytokines COX2 and INFγ were measured by RT-PCR.
as §1, with “centrifuged along” for “centrifuged”, “was added.” for “was added thereto.”, “and LPS (2 μg/mL),” for “and TNF-α (20 nM),”, “for 3” for “for 24”
Next, cells were recovered after culture, and total RNA was extracted using an RNA extraction kit (Qiagen RNeasy kit), and after RNA quantification, cDNA was synthesized using a cDNA synthesis kit (Intron, Korea). […]

Experiment [4] deals with secretion of INFγ induced by LPS, TGF-β, and IL-23 in splenocytes. The experiment in a line: ELISA of INFγ secretion in splenocytes stimulated with LPS, TGF-β and IL-23. As to conditions: mouse splenocytes; peptide 5 μM and 50 μM; LPS 2 μg/mL, TGF-β 20 ng/mL, IL-23 20 ng/mL; 24 hours; FIG. 4. The method, then: In order to confirm the effect of the peptides of the present invention synthesized in Synthesis Example 1 on the inflammatory response induced by LPS, TGF-β, and IL-23, the secretion amount of INFγ, which is an inflammatory cytokine, was measured by ELISA.
Specifically, 6-7 week old mice (C57BL/6, Young Bio Co., Ltd.) were sacrificed to obtain spleens, which were crushed using a cell strainer, and then centrifuged with serum-free RPMI-1640 medium. The supernatant was discarded and red blood cells (RBCs) were removed twice using RBC lysis buffer. Then, after washing the resultant with serum-free RPMI-1640 medium, an appropriate amount of serum-free RPMI-1640 medium was added thereto. The number of mouse splenocytes was measured, and the cells were inoculated into a 24-well plate at a density of 1×10^7 cells/well, and cultured overnight. […]
Next, the cell culture was recovered after cultivation, and the amount of secretion of INFγ, which is an inflammatory cytokine, was measured using an ELISA kit (Quantikine ELISA Kit, R&D System, USA) specific to INFγ, and the absorbance was measured using Spectramax M2 (Molecular Devices).

Experiment [5] deals with TNF-α, COX2, IL-6 and IL-8 mRNA expression in human keratinocytes HaCaT. In words: RT-PCR of inflammatory gene mRNA in HaCaT keratinocytes stimulated with TNF-α and hIL-17A. As to conditions: peptide 5 μM and 50 μM, TNF-α 10 nM and hIL-17A 200 ng/mL, one hour, FIG. 6. The method, then:
In order to confirm the effect of the peptides of the present invention synthesized in Synthesis Example 1 on Th17-mediated inflammatory responses, the mRNA expression levels of TNF-α, COX2, IL-6, and IL-8 were measured by RT-PCR.
Specifically, the number of human keratinocytes HaCaT (CLS Cell Lines Service)) was measured, and the cells were inoculated into a 24-well plate at a density of 3×10^5 cells/well, and cultured overnight. Next day, the medium was replaced with serum-free medium and the cells were cultured for 4 hours, and then treated with the peptide of the present invention (5 μM and 50 μM) and TNF-α (10 nM) and hIL-17A (200 ng/mL), which are Th17 type inflammation-inducing cytokines, used as a stimulant, and cultured for one additional hour.
Next, cells were recovered after culture, and total RNA was extracted using an RNA extraction kit (Qiagen RNeasy kit), and after RNA quantification, cDNA was synthesized using a cDNA synthesis kit (Intron, Korea). A polymerase chain reaction (PCR) was performed by mixing a PCR premix (Intron, Korea), synthesized cDNA, and primers shown in [Table 3] below specific for each of the genes of TNF-α, COX2, IL-6, IL-8, and GAPDH. PCR products were electrophoresed on a 5% agarose gel and stained with ethidium bromide to confirm the mRNA expression levels of TNF-α, COX2, IL-6, and IL-8, which are genes associated with inflammation and autoimmune diseases.

Experiment [6] relates to iNOS and pJNK in human keratinocytes HaCaT. The experiment in a line: Western blot of iNOS and pJNK in HaCaT keratinocytes stimulated with TNF-α and hIL-17A. The conditions noted are these: peptide 5 μM and 50 μM, TNF-α 10 nM and hIL-17A 200 ng/mL, 24 hours, FIG. 7. How it is done: In order to confirm the effect of the peptides of the present invention synthesized in Synthesis Example 1 on Th17-mediated inflammatory responses, the degree of phosphorylation of iNOS and pJNK, which are inflammation-inducing factors and signaling proteins, was measured by Western blot.
Specifically, the number of human keratinocytes HaCaT (CLS Cell Lines Service)) was measured, and the cells were inoculated into a 24-well plate at a density of […], and cultured overnight. Next day, the medium was replaced with serum-free medium and the cells were cultured for 4 hours, and then treated with the peptide of the present invention (5 μM and 50 μM) and TNF-α (10 nM) and hIL-17A (200 ng/mL), which are Th17 type inflammation-inducing cytokines, as a stimulant, and cultured for 24 additional hours.
After cultivation, the cells were recovered to prepare a cell lysate, and a western blot was performed using antibodies against iNOS and pJNK (Cell Signaling Technology, USA) to confirm the patterns of protein expression.

Experiment [7] deals with secretion of IL-17 induced by TNF-α and IL-17A in splenocytes. The experiment in a line: ELISA of IL-17 secretion in splenocytes stimulated with TNF-α and IL-17A. The conditions noted are these: mouse splenocytes; peptide 5 μM and 50 μM; TNF-α 20 nM and IL-17A 200 ng/mL; 24 hours; FIG. 5. How it is done: In order to confirm the effect of the peptides of the present invention synthesized in Synthesis Example 1 on the inflammatory response induced by TNF-α and IL-17A, the secretion amount of IL-17, which is an inflammatory cytokine, was measured by ELISA.
Specifically, 6-7 week old mice were sacrificed to obtain spleens, which were crushed using a cell strainer, and then centrifuged with serum-free RPMI-1640 medium. The supernatant was discarded and red blood cells (RBCs) were removed twice using RBC lysis buffer. Then, after washing the resultant with serum-free RPMI-1640 medium, an appropriate amount of serum-free RPMI-1640 medium was added thereto. The number of mouse splenocytes was measured, and the cells were inoculated into a 24-well plate at a density of 1×10^7 cells/well, and cultured overnight. […]
Next, the cell culture was recovered after cultivation, and the amount of secretion of IL-17, which is an inflammatory cytokine, was measured using an ELISA kit (Quantikine ELISA Kit, R&D System, USA) specific to […], and the absorbance was measured using Spectramax M2 (Molecular Devices).

We go through one sequence from patent US20250129119A1, “PEPTIDE HAVING ANTI-INFLAMMATORY ACTIVITY AND USE THEREOF” (CAREGEN CO., LTD., priority 2021, published 2025).

On to “SVSVGMKPSPRP [peptide of the present invention]”, for which the “secretion of TNF-α (ELISA)” value in experiment [1] (FIG. 3A) was “significantly reduce”. Also, the “secretion of IL-1β (ELISA)” value in experiment [1] (FIG. 3B) is on record as “significantly reduce”. Further, the “secretion of INFγ (ELISA)” value in experiment [1] (FIG. 3C) was “significantly reduce”. For the same sequence, the “secretion of TNF-α (ELISA)” value in experiment [2] (FIG. 2A) is “significantly reduce”. For the same sequence, the “secretion of IFN-γ (ELISA)” value in experiment [2] (FIG. 2B) was “significantly reduce”. For the same sequence, the “secretion of IL-17 (ELISA)” value in experiment [2] (FIG. 2C) is given as “significantly reduce”. In addition, in experiment [3], the “mRNA expression of COX2 (RT-PCR)” value is “significantly reduce” and the “mRNA expression of INFγ (RT-PCR)” value was “significantly reduce”. For the same sequence, in experiment [4], the “secretion of INFγ (ELISA)” value was “significantly reduce”. Further, in experiment [5], the “mRNA expression of COX2 (RT-PCR)” value is “significantly reduce”, the “mRNA expression of IL-6 (RT-PCR)” value is “significantly reduce”, the “mRNA expression of IL-8 (RT-PCR)” value was “significantly reduce” and the “mRNA expression of TNF-α (RT-PCR)” value was “significantly reduce”. Besides, in experiment [6], the “iNOS protein expression (Western blot)” value is listed as “reduce” and the “phosphorylation of JNK (Western blot)” value is “reduce”. Besides, in experiment [7], the “secretion of IL-17 (ELISA)” value was “significantly reduce”.
